Experimental data published in US20210300940A1 (Merck Patent GmbH, priority 2018, published 2021).

Key:
[1] = biological target: T1, TLR8 (Homo sapiens, UniProt Q9NR97); test: HEK/293 TLR8 Cell Assay; format: cell-based; details: HEK cells, R848 agonist 30 uM final concentration, Steady-Glo readout; read-out: TLR8 potency
T1 construct: expressed in transfected cells; host or cells: HEK/293 reporter cells (NF-kB luciferase)
T1 sequence (Q9NR97 27-1041): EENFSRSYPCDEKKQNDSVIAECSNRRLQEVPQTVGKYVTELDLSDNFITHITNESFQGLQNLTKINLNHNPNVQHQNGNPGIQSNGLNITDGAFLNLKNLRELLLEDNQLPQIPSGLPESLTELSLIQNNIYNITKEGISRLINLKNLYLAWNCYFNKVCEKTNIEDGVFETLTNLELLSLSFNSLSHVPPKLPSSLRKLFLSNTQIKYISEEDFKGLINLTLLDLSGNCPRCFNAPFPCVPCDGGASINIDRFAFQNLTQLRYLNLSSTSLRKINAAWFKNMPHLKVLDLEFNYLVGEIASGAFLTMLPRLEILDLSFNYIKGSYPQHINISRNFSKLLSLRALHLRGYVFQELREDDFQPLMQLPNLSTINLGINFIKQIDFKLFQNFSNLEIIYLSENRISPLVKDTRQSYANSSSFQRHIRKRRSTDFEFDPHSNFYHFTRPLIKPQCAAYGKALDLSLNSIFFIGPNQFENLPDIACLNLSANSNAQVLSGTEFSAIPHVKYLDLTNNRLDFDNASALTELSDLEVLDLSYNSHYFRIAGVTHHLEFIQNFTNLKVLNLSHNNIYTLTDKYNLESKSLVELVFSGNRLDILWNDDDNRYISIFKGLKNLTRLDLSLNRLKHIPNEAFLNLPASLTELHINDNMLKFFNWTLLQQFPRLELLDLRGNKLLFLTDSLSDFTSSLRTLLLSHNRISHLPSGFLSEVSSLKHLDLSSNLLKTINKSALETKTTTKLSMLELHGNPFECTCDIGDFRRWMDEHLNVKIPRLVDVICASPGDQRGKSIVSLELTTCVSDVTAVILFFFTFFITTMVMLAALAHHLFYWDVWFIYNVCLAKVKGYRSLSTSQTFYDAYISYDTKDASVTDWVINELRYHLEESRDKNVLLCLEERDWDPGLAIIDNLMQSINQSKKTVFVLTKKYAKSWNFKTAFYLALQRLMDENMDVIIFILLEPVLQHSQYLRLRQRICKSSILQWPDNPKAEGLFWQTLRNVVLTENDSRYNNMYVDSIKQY

[2] = biological target: T2, TLR7 (Homo sapiens, UniProt Q9NYK1); test: HEK/293 TLR7 Cell Assay; format: cell-based; details: TLR7/NFKb HEK cells, R848 agonist 10 uM final concentration, Steady-Glo readout; read-out: TLR7 potency
T2 construct: expressed in transfected cells; host or cells: HEK/293 cells carrying TLR7 and an NF-kB luciferase reporter
T2 sequence (Q9NYK1 27-1049): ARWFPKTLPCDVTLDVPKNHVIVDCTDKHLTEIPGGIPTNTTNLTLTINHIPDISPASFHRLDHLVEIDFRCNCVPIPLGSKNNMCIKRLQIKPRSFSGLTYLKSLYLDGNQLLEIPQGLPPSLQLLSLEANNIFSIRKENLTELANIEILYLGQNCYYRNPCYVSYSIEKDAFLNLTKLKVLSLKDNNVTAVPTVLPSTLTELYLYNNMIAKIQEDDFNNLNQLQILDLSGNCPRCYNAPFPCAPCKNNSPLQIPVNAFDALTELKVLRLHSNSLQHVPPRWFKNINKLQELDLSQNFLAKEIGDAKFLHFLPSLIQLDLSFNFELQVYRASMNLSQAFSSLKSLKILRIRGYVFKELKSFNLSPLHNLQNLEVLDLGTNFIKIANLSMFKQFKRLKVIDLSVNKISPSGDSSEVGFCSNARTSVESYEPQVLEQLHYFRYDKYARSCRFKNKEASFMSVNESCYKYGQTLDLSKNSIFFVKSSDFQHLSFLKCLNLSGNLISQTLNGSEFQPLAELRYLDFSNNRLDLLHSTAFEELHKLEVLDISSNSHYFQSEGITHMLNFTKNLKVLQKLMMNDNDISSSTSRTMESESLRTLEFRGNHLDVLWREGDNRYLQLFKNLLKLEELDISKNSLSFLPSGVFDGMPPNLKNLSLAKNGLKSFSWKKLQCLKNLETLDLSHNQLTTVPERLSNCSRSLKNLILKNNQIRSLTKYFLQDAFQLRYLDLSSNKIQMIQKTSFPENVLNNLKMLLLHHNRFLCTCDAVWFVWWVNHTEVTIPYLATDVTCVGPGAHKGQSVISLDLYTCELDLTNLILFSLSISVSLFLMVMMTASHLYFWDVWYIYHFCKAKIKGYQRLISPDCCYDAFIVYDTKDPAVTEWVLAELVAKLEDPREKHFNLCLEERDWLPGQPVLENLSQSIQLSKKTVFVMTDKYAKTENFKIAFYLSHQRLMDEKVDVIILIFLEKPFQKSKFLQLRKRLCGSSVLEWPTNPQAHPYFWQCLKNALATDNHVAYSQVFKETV
Method in brief: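 TLR7/NF-κB reporter HEK293 cells, 5000/well, cultured 24 h, then preincubated 30 min with compound before R848 agonist (10 uM final). After 5 h stimulation, Steady-Glo luciferase luminescence read.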

SMILES | IC50 [1] | IC50 [2]
C[C@H]1C[C@@H](NC(=O)CC2(N)CC2)CN(c2ccc(C#N)c3nccnc23)C1 [Example 120, 2-(1-aminocyclopropyl)-N-[(3R,5S)-1-(8-cyanoquinoxalin-5-yl)-5-methylpiperidin-3-yl]acetamide] | < 75 nM | < 75 nM
C[C@@H]1CN(c2ccc(C#N)c3nccnc23)C[C@H](C(=O)N2C[C@@H](N)C3(CC3)C2)O1 [Example 288, 8-[(2R,6R)-2-((S)-7-Amino-5-aza-spiro[2.4]heptane-5-carbonyl)-6-methyl-morpholin-4-yl]-quinoxaline-5-carbonitrile] | < 75 nM | < 75 nM
C[C@@H]1CN(c2cnc(C#N)c3ncccc23)C[C@H](CN2CCN(S(N)(=O)=O)CC2)O1 [Example 382, 4-{[(2S,6R)-4-(8-cyano-1,7-naphthyridin-5-yl)-6-methylmorpholin-2-yl]methyl}piperazine-1-sulfonamide] | > 150 nM | > 150 nM
N#Cc1ccc(N2C[C@H](n3cccn3)C[C@H](C(F)(F)F)C2)c2nccnc12 (racemic) [Example 156, 8-[cis-3-(1H-pyrazol-1-yl)-5-(trifluoromethyl)piperidin-1-yl]quinoxaline-5-carbonitrile] | > 150 nM | > 150 nM
N#Cc1ccc(N2C[C@@H](C(F)(F)F)O[C@@H](C(=O)NC[C@]3(F)CCNC3)C2)c2nccnc12 (single isomer, unassigned) [Example 309] | < 75 nM | < 75 nM
CC(C(=O)N[C@@H]1C[C@H](C)CN(c2ccc(C(F)(F)F)c3ncccc23)C1)N1CCC(O)CC1 (single isomer, unassigned) [Example 104] | < 75 nM | < 75 nM
C[C@H]1C[C@@H](NC(=O)CCN2CCOCC2)CN(c2ccc(C#N)c3nccnc23)C1 [Example 194, N-[(3R,5S)-1-(8-Cyano-quinoxalin-5-yl)-5-methyl-piperidin-3-yl]-3-morpholin-4-yl-propionamide] | < 75 nM | 75 to 150 nM
Cc1ncc(N2C[C@H](NC(=O)CC3CCNCC3F)C[C@H](C(F)(F)F)C2)c2cccnc12 (stereo partly drawn) [Example 136, 2-(3-Fluoro-piperidin-4-yl)-N-[(3R,5S)-1-(8-methyl-[1,7]naphthyridin-5-yl)-5-trifluoromethyl-piperidin-3-yl]-acetamide] | < 75 nM | 75 to 150 nM
C[C@@H]1CN(c2cnc(C(F)(F)F)c3ncccc23)C[C@H](CNC[C@@H]2CN(C)CCO2)O1 (single isomer, unassigned) [Example 386] | < 75 nM | > 150 nM
C[C@H]1C[C@@H](NCCC(C)(C)O)CN(c2ccc(C(F)(F)F)c3ncccc23)C1 [Example 33, 2-Methyl-4-[(3R,5S)-5-methyl-1-(8-trifluoromethyl-quinolin-5-yl)-piperidin-3-ylamino]-butan-2-ol] | < 75 nM | < 75 nM
Cc1ccc(N2C[C@@H](NC(=O)CC3CCN(C(C)C)CC3)CC(F)(F)C2)c2cccnc12 [Example 111, N—[(S)-5,5-Difluoro-1-(8-methyl-quinolin-5-yl)-piperidin-3-yl]-2-(1-isopropyl-piperidin-4-yl)-acetamide] | > 150 nM | > 150 nM
N#Cc1ccc(N2C[C@@H](C(=O)NC[C@]3(F)CCNC3)O[C@@H](C(F)(F)F)C2)c2nccnc12 (single isomer, unassigned) [Example 310] | < 75 nM | < 75 nM
C[C@@H]1CN(c2ccc(C#N)c3nccnc23)C[C@H](C(=O)NCC2CN(C)CCO2)O1 (stereo partly drawn) [Example 240, (2R,6R)-4-(8-Cyano-quinoxalin-5-yl)-6-methyl-morpholine-2-carboxylic acid (4-methyl-morpholin-2-ylmethyl)-amide] | < 75 nM | < 75 nM
CCN(C)CCNC(=O)[C@H]1CN(c2ccc(C#N)c3nccnc23)C[C@@H](C)O1 [Example 244, (2R,6R)-4-(8-Cyano-quinoxalin-5-yl)-6-methyl-morpholine-2-carboxylic acid [2-(ethyl-methyl-amino)-ethyl]-amide] | < 75 nM | < 75 nM
C[C@H]1C[C@@H](NC(=O)[C@H]2CCCN2)CN(c2ccc(C#N)c3nccnc23)C1 [Example 174, (R)-Pyrrolidine-2-carboxylic acid [(3R,5S)-1-(8-cyano-quinoxalin-5-yl)-5-methyl-piperidin-3-yl]-amide] | 75 to 150 nM | > 150 nM
C[C@@H]1CN(c2cnc(C#N)c3ncccc23)C[C@H](CN2CCC(F)(CN)CC2)O1 [Example 370, 5-[(2S,6R)-2-(4-Aminomethyl-4-fluoro-piperidin-1-ylmethyl)-6-methyl-morpholin-4-yl]-[1,7]naphthyridine-8-carbonitrile] | < 75 nM | < 75 nM
CN1CC[C@@](F)(CNC(=O)[C@H]2CN(c3ccc(C#N)c4nccnc34)C[C@@H](C(F)(F)F)O2)C1 (single isomer, unassigned) [Example 355] | < 75 nM | < 75 nM
C[C@H]1C[C@@H](n2cccn2)CN(c2ccc(C(F)(F)F)c3nccnc23)C1 (racemic) [Example 155, 5-[cis-3-methyl-5-(1H-pyrazol-1-yl)piperidin-1-yl]-8-(trifluoromethyl)quinoxaline] | > 150 nM | > 150 nM
CC(=O)NCCNC(=O)[C@H]1CN(c2ccc(C#N)c3nccnc23)C[C@@H](C)O1 [Example 243, (2R,6R)-4-(8-Cyano-quinoxalin-5-yl)-6-methyl-morpholine-2-carboxylic acid (2-acetylamino-ethyl)-amide] | > 150 nM | 75 to 150 nM
C[C@@H]1CN(c2cnc(C#N)c3ncccc23)C[C@H](C(=O)NC2CCC(N3CCOCC3)CC2)O1 (stereo partly drawn) [Example 277, (2R,6R)-4-(8-Cyano-[1,7]naphthyridin-5-yl)-6-methyl-morpholine-2-carboxylic acid (4-morpholin-4-yl-cyclohexyl)-amide] | < 75 nM | < 75 nM
C[C@@H]1CN(c2ccc(C#N)c3nccnc23)C[C@H](CN2CC[C@H](O)C2)O1 [Example 220, 8-[(2S,6R)-2-((S)-3-Hydroxy-pyrrolidin-1-ylmethyl)-6-methyl-morpholin-4-yl]-quinoxaline-5-carbonitrile] | > 150 nM | < 75 nM
C[C@H]1C[C@@H](NC(=O)[C@H](O)CO)CN(c2ccc(C#N)c3nccnc23)C1 [Example 160, (R)—N-[(3R,5S)-1-(8-Cyano-quinoxalin-5-yl)-5-methyl-piperidin-3-yl]-2,3-dihydroxy-propionamide] | < 75 nM | < 75 nM
